Key:
500-mer = test: Post-amplification sterilization: isopsoralen plus irradiation, reamplification of carryover; format: biochemical, lambda; details: CE-III 15 minutes, 500-mer PCR product, 30 cycles
Method: The two PCR targets used in these experiments were a 115-mer (SK-38/SK-39 HIV system) and a 500-mer. The 500-mer target is obtained from a PCR amplification of a lambda plasmid with primers PCR 01/02. This system is provided by Cetus/Perkin Elmer as a control in their commercial kits of PCR reagents (Catalogue No. N801-0055). For both of these systems equivalent copy numbers of each target were prepared in the following manner: An initial 30 cycle PCR reaction was carried out for each system with the appropriate primers and targets. Aliquots (approximately 10^5-10^6 target copies) of each of these reactions were transferred to a second set of PCR reactions. These second sets of PCR amplifications were carried out in the presence of α-^32P-dCTP, again for 30 cycles. Aliquots of these reactions were removed and counted by liquid scintillation counting. With these numbers, the specific activity of the α-32P-dCTP, and the sequence of each of the PCR product oligonucleotides (115-mer and 500-mer), the concentrations of each of the two PCR product oligonucleotides in the second set of PCR reaction tubes was determined. Both the 115-mer and the 500-mer concentrations were then adjusted to exactly 1 x 10^-8 M by the addition of additional Taq buffer. These stocks of equivalent copy number of PCR products were then used for further investigation. Each of the stock solutions then was subdivided into four reaction tubes. The reaction tubes were adjusted to contain the following: Tube 1, 100 µg/ml AMIP; Tube 2, 400 µg/ml AMIP; Tube 3, 100 µg/ml AMDMIP; and Tube 4, 400 µg/ml AMDMIP. Each of these samples were again split into two portions, one part being irradiated for 15 minutes at room temperature with the CE-III device and the other part kept in the dark. Serial dilutions of the irradiated and the unirradiated targets were then carried out on these samples for 30 cycles in the presence of α-32P-CTP. Aliquots of these samples were analyzed on denaturing polyacrylamide gels. The PCR product bands were visualized by autoradiography, cut, and counted in a liquid scintillation counter.

HIV 115-mer = test: as above; format: biochemical; details: for sterilization sensitivity (molecules of carryover sterilized): 115-mer PCR product; for amplification of carryover, not light-treated: no irradiation
Excerpt: For the purposes of this determination, the steps of the following experiment include (see Figure 40): a) preparing template, b) providing template, c) providing PCR reagents, d) providing polymerase, e) mixing PCR reagents, template, and polymerase to initiate PCR, f) cycling to provide PCR product, g) carrying over of PCR product into new tubes, h) providing isopsoralen, i) adding isopsoralen to the carryover, j) irradiating, k) addition of new PCR reagents, and l) subsequent PCR. Steps a), b) , c) , d), e), and f). PCR product was provided as described earlier. Step g) carrying over of PCR product. Aliquots of PCR product were added into new reaction tubes at 10^6 copies per tube. Step h) Providing Isopsoralen. AMDMIP was synthesized as described and diluted. Step i) Addition of Isopsoralen. AMDMIP (100 µg/ml, approximately 10^-4 M) was added reaction vessels containing carryover. Step j) Irradiation. Irradiation was performed on the PTI device to avoid photoproduct. Three of the new reaction tubes were irradiated while the others were left unirradiated as controls. Irradiation was for 15 minutes at RT as above. Step k) PCR Reagents and Taq Polymerase Were Added to Appropriate Concentrations. The final volume was increased two fold such that AMDMIP photoproducts were at 50 µg/ml. Step l) Subsequent PCR. Amplification was performed in closed reaction vessels using primer pair SK-38/39 for 20, 25 or 30 cycles, using the temperature profile for cycling described above in the presence of α-^32P-dCTP.
For the purposes of this determination, the steps of the following experiment include (see Figure 42): a) preparing template, b) providing template, c) providing isopsoralen, d) providing PCR reagents, e) providing polymerase, f) mixing isopsoralen, PCR reagents, template, and polymerase to initiate PCR, g) cycling to provide PCR product, h) irradiating, i) carrying over of PCR product into new tubes at specific copy numbers, and j) amplifying in a subsequent PCR. Step a): Template preparation. HIV 115-mer was used as template. Step b) Providing Template. For the reaction, template (equivalent to approximately 10^7 copies) in buffer was provided for the reaction vessel. Step c) Providing Isopsoralen. AMDMIP (400 µg/ml) was provided as the isopsoralen. This is a higher concentration of AMDMIP than used in the previous example. Steps d), e), f) and g). PCR reagents and polymerase were provided, mixed and cycled as described above. This time, however, isopsoralen is part of the pre-amplification mixture. Step h) Irradiation. Irradiation was performed on the CE-III device for 15 minutes at 25°C. Step i) Carrying over of PCR product. Aliquots of PCR product were added into six new reaction tubes - two tubes for each dilution. Dilutions to yield 10^7, 10^5 and 10^3 copies were made. (Note that the dilutions were made from a concentration of approximately […]; thus, the dilutions produce a concentration of photoproduct that is far too low to consider photoproduct sterilization.) Step j) Subsequent PCR. New PCR reagents and polymerase were provided and mixed. Amplification was performed in closed reaction vessels using primer pair SK-38/39 for 30 cycles, using the temperature profile for cycling described above in the presence of α-^32P-dCTP.
The two PCR targets used in these experiments were a 115-mer (SK-38/SK-39 HIV system) and a 500-mer. The 500-mer target is obtained from a PCR amplification of a lambda plasmid with primers PCR 01/02. This system is provided by Cetus/Perkin Elmer as a control in their commercial kits of PCR reagents (Catalogue No. N801-0055). For both of these systems equivalent copy numbers of each target were prepared in the following manner: An initial 30 cycle PCR reaction was carried out for each system with the appropriate primers and targets. Aliquots (approximately 10^5-10^6 target copies) of each of these reactions were transferred to a second set of PCR reactions. […]

[1] = 100 µg/ml, CE-III 15 minutes, 30 cycles
[2] = 400 µg/ml, CE-III 15 minutes, 30 cycles

Substance	sterilization sensitivity (molecules of carryover sterilized) (500-mer; 100 µg/ml)	sterilization sensitivity (molecules of carryover sterilized) (500-mer; 400 µg/ml)	sterilization of 115-mer PCR product compared with AMIP (HIV 115-mer; [1])	sterilization sensitivity (molecules of carryover sterilized) (HIV 115-mer; [2])	sterilization of carryover (HIV 115-mer; AMDMIP 100 µg/ml added after amplification, PTI 15 minutes, 10^6 copies, thirty cycles)	sterilization of carryover (HIV 115-mer; AMDMIP 100 µg/ml added after amplification, PTI 15 minutes, 10^6 copies, twenty cycles)	sterilization of carryover (HIV 115-mer; AMDMIP 100 µg/ml added after amplification, PTI 15 minutes, 10^6 copies, twenty-five cycles, reduced relative to controls)	amplification of carryover, not light-treated (HIV 115-mer; AMDMIP 100 µg/ml, 20, 25, 30 cycles)	sterilization of carryover (HIV 115-mer; AMDMIP 400 µg/ml present during amplification, CE-III 15 minutes at 25°C, 10^7, 10^5, 10^3 copies, 30 cycles)	amplification of carryover, not light-treated (HIV 115-mer; AMDMIP 400 µg/ml present during first amplification, 30 cycles)	target molecules left capable of being replicated by PCR (HIV 115-mer; inferred from 20 cycles with 100 CPM threshold and Table 6)	target molecules that retained replicating capabilities (HIV 115-mer; inferred from 25 cycles and Table 6)	sterilization sensitivity (molecules of carryover sterilized) (HIV 115-mer; [1])
4'-Aminomethyl-4,5'-dimethylisopsoralen [AMDMIP]	≥ 6 x 10^9 carryover molecules	no signal in the irradiated dilution series	better sterilization agent	≥ 6 x 10^9 carryover molecules	no significant sterilization is observed	sterilization appears to be complete	PCR product is visible	show amplification	complete, post-amplification sterilization	show amplification	less than 10^4 target molecules	at least 10^3 target molecules	
5-Aminomethylisopsoralen [AMIP]	more effectively sterilized than the 115-mer PCR product	≥ 6 x 10^9 molecules of carryover		about 10^6 carryover molecules									about 10,000 molecules of carryover
